From patent US9376444
Where two headings read alike, the source gives them in different places.

Conditions: rcm bond, Grubbs II, DCM, 40.0 °C

For `COC(=O)Nc1ccc2c(c1)NC(=O)[C@H](C)/C=C/C[C@H](NC(=O)OC(C)(C)C)c1nc-2cn1COCC[Si](C)(C)C`, the ring closure, yield of all isomers (from C=CC[C@H](NC(=O)OC(C)(C)C)c1nc(-c2ccc(NC(=O)OC)cc2NC(=O)[C@H](C)C=C)cn1COCC[Si](C)(C)C, 9.73 mM, 21.5 h) was 74%.
With `C[C@@H]1/C=C/C[C@H](NC(=O)OC(C)(C)C)c2cn(COCC[Si](C)(C)C)c(n2)-c2ccc([N+](=O)[O-])cc2NC1=O` the ring closure, yield of all isomers (from C=CC[C@H](NC(=O)OC(C)(C)C)c1cn(COCC[Si](C)(C)C)c(-c2ccc([N+](=O)[O-])cc2NC(=O)[C@H](C)C=C)n1, 1.016 mM) was 55.9%.
In the case of `COC(=O)Nc1ccc2c(c1)NC(=O)[C@H](C)/C=C/C[C@H](NC(=O)OC(C)(C)C)c1cc-2ccn1`, the ring closure, yield of all isomers (from C=CC[C@H](NC(=O)OC(C)(C)C)c1cc(-c2ccc(NC(=O)OC)cc2NC(=O)[C@H](C)C=C)ccn1, 11.76 mM, 4.0 h) is reported as 71.2%.
